Measured values taken from patent publication US20260284091A1, “IMIDAZOLE LOADED GLYCYRRHIZIC ACID HYDROGELS” (KATHOLIEKE UNIVERSITEIT LEUVEN, priority 2023, published 2026).

Legend:
Assay in all cases: Growth inhibition and biocidal activity evaluation of glycyrrhizic acid hydrogels
[1] = tested on: Escherichia coli UTI89; assay type: cell-based; details: E. coli; bactericidal = 3 LOG reduction compared to the inoculum
From the text: (§1) Escherichia coli UTI89, Pseudomonas aeruginosa LMG9009, Staphylococcus aureus ATCC6538, Klebsiella pneumoniae ATCC13883, Klebsiella aerogenes ATCC13048, Acinetobacter baumannii RD5SR3. Enterococcus faecalis LMG8148, Streptococcus pyogenes LMG 14237 and clinical isolates of a Staphylococcus epidermidis and a methicillin resistant S. aureus (MRSA), isolated from osteomyelitis patients were used. Prior to the experiments, all strains, except S. pyogenes were inoculated in Lysogeny broth (LB) and incubated overnight on 37° C. (200 rpm). Overnight cultures of S. pyogenes were grown micro-aerophilic in Brain-Heart infusion broth (BHI). Thereafter, the bacteria were normalized to roughly 5*10^5 CFU mL^−1. Lysogeny broth (LB; 10 g L^−1 NaCl, 10 g L^−1 Tryptone, 5 g L^−1 Yeast Extract) was used to create overnight cultures (ONC). Mueller Hinton Broth (MHB; 21 g L^−1 MHB) was used for the minimal inhibitory concentration (MIC) assays for all strain except S. pyogenes. For this strain, BHI was used. If LB agar, BHI agar or MHB agar was needed, 15 g L^−1 of bacteriological agar was added. MHB or BHI batches with varying pH were made by adding HCl or NaOH to acidify or alkalify the medium to the desired pH-value, respectively. Three different formulations of the glycyrrhizic acid hydrogels were made in dH2O:
(§2) (i) Hydrogel C with pH=3, (ii) Hydrogel B with pH=3.8 and (iii) Hydrogel A with pH=4.2. pH was measured at 70° C. and varied using HCl or NaOH to acidify or alkalify the formulation to the desired pH-value. Moreover, different concentration batches (mass by volume) were used for the hydrogels: 2.5%, 5%, 7,5%, 10%, 15% and 20%. Glycyrrhizic acid in solution—not a hydrogel—was prepared at pH 7,4.
(§3) To determine the growth inhibiting activity of glycyrrhizic acid in solution, 100 μL of different 1:2 dilutions of a 100 mg/mL stock solution of glycyrrhizic acid in MHB were added to the wells of a 96 well microtiter plate, after which 100 μL of a 5*10^5 CFU mL^−1 bacteria suspension in MHB was added to each well.
(§4) To determine the growth inhibiting activity of the glycyrrhizic acid hydrogels, the hydrogel was liquefied by heating to 70° C. When liquid, varying volumes of the liquid hydrogel (80 μL to 160 μL) were pipetted into a 96 well microtiter plate. After the hydrogel solidified, 120 μL of a 5*10^5 CFU mL^−1 bacteria suspension in MHB was added on top of the hydrogel.
(§5) To avoid evaporation, the plates were sealed using a membrane (Greiner Bio-one NV). After 24 hours of incubation (37° C., 200 rpm), the OD595 was measured and relative OD595 was calculated by dividing the OD595 by the average OD595 of the growth control (=growth of cells in MHB without glycyrrhizic acid).
(§6) To determine the biocidal activity of glycyrrhizic acid in solution and in hydrogel, at the end of the growth inhibition assay (see above), after incubation, 100 μL of the medium on top of the hydrogel was diluted 10 times in Phosphate saline buffer (PBS; 1.24 g L^−1 K2HPO4. 0.39 g L^−1 KH2PO4. 8.8 g L^−1 NaCl) and plated out on MHB agar plates by spreading 100 μL of the dilution. After incubating overnight at 37° C., colonies were counted and the colony forming units were determined.

[2] = tested on: Klebsiella aerogenes ATCC13048; assay type: cell-based; details: K. aerogenes; bactericidal = 3 LOG reduction compared to the inoculum
From the text: as §1, §2, §3, §4, §5, §6

[3] = tested on: Enterococcus faecalis LMG8148; assay type: cell-based; details: bactericidal = 3 LOG reduction compared to the inoculum
From the text: as §1, §2, §3, §4, §5, §6

[4] = tested on: Pseudomonas aeruginosa LMG9009; assay type: cell-based; details: P. aeruginosa; bactericidal = 3 LOG reduction compared to the inoculum
From the text: as §1, §2, §3, §4, §5, §6

[5] = tested on: Streptococcus pyogenes LMG 14237; assay type: cell-based
From the text: as §1, §2, §3, §4, §5, §6

[6] = tested on: Acinetobacter baumannii RD5SR3; assay type: cell-based; details: A. baumannii; bactericidal = 3 LOG reduction compared to the inoculum
From the text: as §1, §2, §3, §4, §5, §6

[7] = tested on: Staphylococcus epidermidis; assay type: cell-based; details: S. epidermidis; bactericidal = 3 LOG reduction compared to the inoculum
From the text: as §1, §2, §3, §4, §5, §6

[8] = tested on: Klebsiella pneumoniae ATCC13883; assay type: cell-based; details: K. pneumoniae; bactericidal = 3 LOG reduction compared to the inoculum
From the text: as §1, §2, §3, §4, §5, §6

[9] = tested on: MRSA; assay type: cell-based, Methicillin-resistant Staphylococcus aureus; details: bactericidal = 3 LOG reduction compared to the inoculum
From the text: Escherichia coli UTI89, Pseudomonas aeruginosa LMG9009, Staphylococcus aureus ATCC6538, Klebsiella pneumoniae ATCC13883, Klebsiella aerogenes ATCC13048, Acinetobacter baumannii RD5SR3. Enterococcus faecalis LMG8148, Streptococcus pyogenes LMG 14237 and clinical isolates of a Staphylococcus epidermidis and a methicillin resistant S. aureus (MRSA), isolated from osteomyelitis patients were used. Prior to the experiments, all strains, except S. pyogenes were inoculated in Lysogeny broth (LB) and incubated overnight on 37° C. (200 rpm). Overnight cultures of S. pyogenes were grown micro-aerophilic in Brain-Heart infusion broth (BHI). Thereafter, the bacteria were normalized to roughly 5*10^5 CFU mL^−1. Lysogeny broth (LB; 10 g L^−1 NaCl, 10 g L^−1 Tryptone, 5 g L^−1 Yeast Extract) was used to create overnight cultures (ONC). […]
(i) Hydrogel C with pH=3, (ii) Hydrogel B with pH=3.8 and (iii) Hydrogel A with pH=4.2. pH was measured at 70° C. and varied using HCl or NaOH to acidify or alkalify the formulation to the desired pH-value. […]
as §5, with “acid). […]” for “acid).”

CC1(C)[C@@H](O[C@H]2O[C@H](C(=O)O)[C@@H](O)[C@H](O)[C@H]2O[C@@H]2O[C@H](C(=O)O)[C@@H](O)[C@H](O)[C@H]2O)CC[C@]2(C)[C@H]3C(=O)C=C4[C@@H]5C[C@@](C)(C(=O)O)CC[C@]5(C)CC[C@@]4(C)[C@]3(C)CC[C@@H]12 [GLY in solution, glycyrrhizic acid]
No effect: antibacterial effect (no effect, bacteriostatic, bactericidal) [1] | antibacterial effect (no effect, bacteriostatic, bactericidal) [2] | antibacterial effect (no effect, bacteriostatic, bactericidal) [3] | antibacterial effect (no effect, bacteriostatic, bactericidal) [4] | antibacterial effect (no effect, bacteriostatic, bactericidal) [6] | antibacterial effect (no effect, bacteriostatic, bactericidal) [7] | antibacterial effect (no effect, bacteriostatic, bactericidal) [8] | antibacterial effect (no effect, bacteriostatic, bactericidal) [9]
inhibited: growth inhibition ([5]; 50 mg/mL in solution, pH 7.0, only one of nine pathogens tested that was inhibited)
Bacteriostatic: antibacterial effect (no effect, bacteriostatic, bactericidal) ([5]; Streptococcus, bactericidal = 3 LOG reduction compared to the inoculum)
